Source: publication PMC6586154 (Clinical Pharmacology in Drug Development, 2018)

Tests used:
OCT2 [1] = settings: cited from earlier work
[2] = cited from earlier work
OAT3 [3] = settings: cited from earlier work
[4] = Ertugliflozin-sitagliptin drug-drug interaction study, plasma pharmacokinetics; type: in vivo, human; settings: for AUC(0-inf): po
[5] = Ertugliflozin-metformin drug-drug interaction study, plasma pharmacokinetics
OCT1 = settings: cited from earlier work
OCT2 [6] = settings: in vitro studies; cited from earlier work
[7] = Ertugliflozin-simvastatin drug-drug interaction study, plasma pharmacokinetics
OATP1B3 = settings: cited from earlier work
P‐glycoprotein = settings: at clinically relevant concentrations; cited from earlier work
[8] = test system: breast cancer resistance protein; settings: at clinically relevant concentrations; cited from earlier work
OATP2B1 = settings: cited from earlier work
[9] = Safety and tolerability across all 4 DDI studies; type: in vivo, human; settings: single dose ertugliflozin 15 mg alone or in combination with sitagliptin, metformin, glimepiride, or simvastatin; healthy subjects
OAT3 [10] = settings: in vitro studies; cited from earlier work
[11] = Ertugliflozin-glimepiride drug-drug interaction study, plasma pharmacokinetics; type: in vivo, human; settings: for AUC(0-t) / Cmax / Tmax / half-life: oral; for GMR (90% CI) Cmax, analyte Glimepiride: Test Ertugliflozin + Glimepiride / Reference Glimepiride
[12] = Ertugliflozin plasma PK summarized across all 4 DDI studies; type: in vivo; settings: human, oral, 15 mg
OATP1B1 = settings: cited from earlier work
OAT1 = settings: cited from earlier work
[13] = both, human, plasma, oral, 15 mg
[14] = simvastatin 40 mg coadministered with ertugliflozin 15 mg vs alone

## CCOc1ccc(Cc2cc([C@]34OC[C@](CO)(O3)[C@@H](O)[C@H](O)[C@H]4O)ccc2Cl)cc1 [Ertugliflozin]
OCT2 [1]
  Substrate of OCT2 uptake transporter: not a substrate
[2]
  Absolute (oral) bioavailability: approximately 100%
[2]; human, in vivo
  Renal excretion of unchanged ertugliflozin: 1.5 % of the administered dose
[2]; major metabolic pathway
  Contribution of glucuronidation to metabolic clearance: 86%
[2]; minor pathway
  Contribution of oxidative metabolism: 12%
OAT3 [3]
  Substrate of OAT3 uptake transporter: not a substrate
[4]; Test Ertugliflozin + Sitagliptin / Reference Ertugliflozin
  GMR (90% CI) Cmax, analyte Ertugliflozin: 98.2 (91.2, 105.7) %
[4]; human, plasma, oral, 15 mg
  AUC(0-t): 1430 ng·h/mL
  Cmax: 270 ng/mL
  Tmax: 1 h
[4]; human, plasma, 15 mg
  AUC(0-inf): 1460 ng·h/mL
[5]; Test Ertugliflozin + Metformin / Reference Ertugliflozin
  GMR (90% CI) Cmax, analyte Ertugliflozin: 97.1 (88.8, 106.3) %
[5]; [13]
  AUC(0-t): 1380 ng·h/mL
  Cmax: 279 ng/mL
  Tmax: 1.02 h
  half-life: 11.8 ± 2.34 h
OCT1
  Substrate of OCT1 uptake transporter: not a substrate
OCT2 [6]
  Inhibition of OCT2 transporter: weak inhibitor
[7]; Test Ertugliflozin + Simvastatin / Reference Ertugliflozin
  GMR (90% CI) Cmax, analyte Ertugliflozin: 105.2 (98.3, 112.5) %
[7]; both, human, in vivo, 15 mg
  AUC(0-t): 1380 ng·h/mL
  Cmax: 273 ng/mL
  half-life: 12.3 ± 3.07 h
OATP1B3
  Substrate of OATP1B3 uptake transporter: not a substrate
P‐glycoprotein
  Substrate of P‐glycoprotein efflux transporter: substrate
[8]
  Substrate of breast cancer resistance protein efflux transporter: substrate
OATP2B1
  Substrate of OATP2B1 uptake transporter: not a substrate
[9]
  Tolerability: well tolerated
OAT3 [10]
  Inhibition of OAT3 transporter: weak inhibitor
[11]; Test Ertugliflozin + Glimepiride / Reference Ertugliflozin
  GMR (90% CI) Cmax, analyte Ertugliflozin: 98.2 (92.2, 104.6) %
[11]; both, human, plasma, 15 mg
  AUC(0-t): 1230 ng·h/mL
  Cmax: 146 ng/mL
  Tmax: 2 h
  half-life: 10.6 ± 2.44 h
[12]
  Tmax: 1 to 3 h
  half-life: 10.6 to 12.6 h
OATP1B1
  Substrate of OATP1B1 uptake transporter: not a substrate
OAT1
  Substrate of OAT1 uptake transporter: not a substrate

## CCC1=C(C)CN(C(=O)NCCc2ccc(S(=O)(=O)NC(=O)N[C@H]3CC[C@H](C)CC3)cc2)C1=O [Glimepiride]
[11]
  GMR (90% CI) Cmax, analyte Glimepiride: 97.4 (71.1, 133.5) %
[11]; listed as glimepiride
  GMR (90% CI) Cmax, analyte Glimepiride: 97.4%
[11]; both, human, plasma
  Tmax: 1 to 12 h
[11]; both, human, plasma, 1 mg
  AUC(0-t): 218 ng·h/mL
  Cmax: 34.4 ng/mL
  half-life: 5.89 ± 2.79 h
[11]; both, human, plasma, po, 1 mg
  AUC(0-inf): 249 ng·h/mL
[11]; glimepiride 1 mg alone or with ertugliflozin 15 mg
  Intrasubject variability for Cmax of glimepiride: 53.5%

## CN(C)C(=N)N=C(N)N [Metformin, reference compound]
[5]; Test Ertugliflozin + Metformin / Reference Metformin
  GMR (90% CI) Cmax, analyte Metformin: 94.0 (82.9, 106.6) %
[5]; plasma, Metformin 1000 mg alone (N = 18), median (range)
  Metformin Tmax: 2.00 (0.50–4.00) h

## CCC(C)(C)C(=O)O[C@H]1C[C@@H](C)C=C2C=C[C@H](C)[C@H](CC[C@@H](O)C[C@@H](O)CC(=O)O)[C@H]21 [Simvastatin Acid, simvastatin acid]
[7]; [14]
  Increase in geometric mean AUCinf of simvastatin acid: 30%
  Increase in geometric mean Cmax of simvastatin acid: 16%

## CCC(C)(C)C(=O)O[C@H]1C[C@@H](C)C=C2C=C[C@H](C)[C@H](CC[C@@H]3C[C@@H](O)CC(=O)O3)[C@H]21 [Simvastatin, reference compound]
[7]; [14]
  Increase in geometric mean AUCinf of simvastatin: 24%
  Increase in geometric mean Cmax of simvastatin: 19%

## N[C@@H](CC(=O)N1CCn2c(nnc2C(F)(F)F)C1)Cc1cc(F)c(F)cc1F [Sitagliptin, reference compound]
[4]; Test Ertugliflozin + Sitagliptin / Reference Sitagliptin
  GMR (90% CI) Cmax, analyte Sitagliptin: 101.7 (91.7, 112.8) %
[4]; both, human, plasma, oral, 100 mg
  half-life: 11 ± 2.89 h
[4]; human, plasma, oral, 100 mg
  AUC(0-t): 6.95 µM·h
  Cmax: 814 nM
[4]; human, plasma, 100 mg
  AUC(0-inf): 7.02 µM·h
